# Measurements taken from ChEMBL document CHEMBL1132113, “Inhibitors of efflux pumps in Pseudomonas aeruginosa potentiate the activity of the fluoroquinolone antibacterial levofloxacin” (1999).
# Square brackets hold non-standard residues; d marks the D form. Peptide text beside a SMILES is read from it. * marks the point of attachment. Orn = NCCC[C@H](N)C(=O)O; βNA = c1ccc2cc(N*)ccc2c1
# Tests used:
# Pseudomonas aeruginosa [1] = test: (§1) Volume of synergy by MacSynergy II 3-D analysis.; type: functional
# Pseudomonas aeruginosa [2] = test: Minimum Inhibitory concentration required to inhibit the growth of Pseudomonas aeruginosa (strain PAM 1032).; type: functional
# Pseudomonas aeruginosa [3] = test: Minimum Inhibitory concentration required to reduce the MIC of levofloxacin by 8-fold against PAM 1032; type: functional
# [4] = Volume of synergy by MacSynergy II 3-D analysis
# Pseudomonas aeruginosa [5] = test: Minimum Inhibitory concentration required to inhibit the growth of Pseudomonas aeruginosa (strain PAM 1032); type: functional
# [6] = as §1
# Pseudomonas aeruginosa [7] = test: Minimum inhibitory concentration of Levofloxacin in presence at a concentration of 20 ug/mL against PAM 1034.; type: functional
# Pseudomonas aeruginosa [8] = test: Minimum inhibitory concentration of Levofloxacin in presence at a concentration of 0 ug/mL against PAM 1032; type: functional
# Pseudomonas aeruginosa [9] = test: Minimum inhibitory concentration of Levofloxacin in presence at a concentration of 1.25 ug/mL against PAM 1032; type: functional
# Pseudomonas aeruginosa [10] = test: Minimum inhibitory concentration of Levofloxacin in presence at a concentration of 20 ug/mL against PAM 1032; type: functional
# Pseudomonas aeruginosa [11] = test: Minimum inhibitory concentration of Levofloxacin in presence at a concentration of 50 ug/mL against PAM 1033.; type: functional
# Pseudomonas aeruginosa [12] = test: Minimum inhibitory concentration of Levofloxacin in presence at a concentration of 10 ug/mL against PAM 1032; type: functional
# Pseudomonas aeruginosa [13] = test: Minimum Inhibitory concentration required to reduce the MIC of levofloxacin by 8-fold against PAM 1034.; type: functional
# Pseudomonas aeruginosa [14] = test: Minimum inhibitory concentration of Levofloxacin in presence at a concentration of 2.5 ug/mL against PAM 1032; type: functional
# Pseudomonas aeruginosa [15] = test: Minimum inhibitory concentration of Levofloxacin in presence at a concentration of 2.50 ug/mL against PAM 1033.; type: functional
# Pseudomonas aeruginosa [16] = test: Minimum inhibitory concentration of Levofloxacin in presence at a concentration of 0 ug/mL against PAM 1033; type: functional
# Pseudomonas aeruginosa [17] = test: Minimum inhibitory concentration of Levofloxacin in presence at a concentration of 40 ug/mL against PAM 1034.; type: functional
# Pseudomonas aeruginosa [18] = test: Minimum inhibitory concentration of Levofloxacin in presence at a concentration of 2.5 ug/mL against PAM 1034.; type: functional
# Pseudomonas aeruginosa [19] = test: Minimum inhibitory concentration of Levofloxacin in presence at a concentration of 10 ug/mL against PAM 1034.; type: functional
# Pseudomonas aeruginosa [20] = test: Minimum inhibitory concentration of Levofloxacin in presence at a concentration of 5 ug/mL against PAM 1032; type: functional
# Pseudomonas aeruginosa [21] = test: Minimum Inhibitory concentration required to reduce the MIC of levofloxacin by 8-fold against PAM 1033.; type: functional
# Pseudomonas aeruginosa [22] = test: Minimum inhibitory concentration of Levofloxacin in presence at a concentration of 40 ug/mL against PAM 1033.; type: functional
# Pseudomonas aeruginosa [23] = test: Minimum inhibitory concentration of Levofloxacin in presence at a concentration of 1.25 ug/mL against PAM 1033; type: functional
# Pseudomonas aeruginosa [24] = test: Minimum inhibitory concentration of Levofloxacin in presence at a concentration of 1.25 ug/mL against PAM 1034.; type: functional
# Pseudomonas aeruginosa [25] = test: Minimum inhibitory concentration of Levofloxacin in presence at a concentration of 40 ug/mL against PAM 1032; type: functional
# Pseudomonas aeruginosa [26] = test: Minimum inhibitory concentration of Levofloxacin in presence at a concentration of 20 ug/mL against PAM 1033.; type: functional
# Pseudomonas aeruginosa [27] = test: Minimum inhibitory concentration of Levofloxacin in presence at a concentration of 10 ug/mL against PAM 1033.; type: functional
# Pseudomonas aeruginosa [28] = test: Minimum inhibitory concentration of Levofloxacin in presence at a concentration of 5 ug/mL against PAM 1034.; type: functional
# Pseudomonas aeruginosa [29] = test: Minimum inhibitory concentration of Levofloxacin in presence at a concentration of 0 ug/mL against PAM 1034.; type: functional
# Pseudomonas aeruginosa [30] = test: Minimum inhibitory concentration of Levofloxacin in presence at a concentration of 0 ug/mL against PAM 1034; type: functional
# Pseudomonas aeruginosa [31] = test: Minimum inhibitory concentration of Levofloxacin in presence at a concentration of 20 ug/mL against PAM 1033; type: functional
# Pseudomonas aeruginosa [32] = test: Minimum Inhibitory concentration required to reduce the MIC of levofloxacin by 8-fold against PAM 1033; type: functional
# Pseudomonas aeruginosa [33] = test: Minimum inhibitory concentration of Levofloxacin in presence at a concentration of 10 ug/mL against PAM 1034; type: functional
# Pseudomonas aeruginosa [34] = test: Minimum inhibitory concentration of Levofloxacin in presence at a concentration of 40 ug/mL against PAM 1034; type: functional
# Pseudomonas aeruginosa [35] = test: Minimum inhibitory concentration of Levofloxacin in presence at a concentration of 2.5 ug/mL against PAM 1034; type: functional
# Pseudomonas aeruginosa [36] = test: Minimum inhibitory concentration of Levofloxacin in presence at a concentration of 2.50 ug/mL against PAM 1033; type: functional
# Pseudomonas aeruginosa [37] = test: Minimum inhibitory concentration of Levofloxacin in presence at a concentration of 10 ug/mL against PAM 1033; type: functional
# Pseudomonas aeruginosa [38] = test: Minimum inhibitory concentration of Levofloxacin in presence at a concentration of 20 ug/mL against PAM 1034; type: functional
# Pseudomonas aeruginosa [39] = test: Minimum inhibitory concentration of Levofloxacin in presence at a concentration of 40 ug/mL against PAM 1033; type: functional
# Pseudomonas aeruginosa [40] = test: Minimum inhibitory concentration of Levofloxacin in presence at a concentration of 5 ug/mL against PAM 1034; type: functional
# Pseudomonas aeruginosa [41] = test: Minimum inhibitory concentration of Levofloxacin in presence at a concentration of 50 ug/mL against PAM 1033; type: functional
# Pseudomonas aeruginosa [42] = test: Minimum Inhibitory concentration required to reduce the MIC of levofloxacin by 8-fold against PAM 1034; type: functional
# Pseudomonas aeruginosa [43] = test: Minimum inhibitory concentration of Levofloxacin in presence at a concentration of 1.25 ug/mL against PAM 1034; type: functional
smiles,measurement,setting,value
NCCC[C@H](NC(=O)[C@@H](N)Cc1ccccc1)C(=O)Nc1ccc2ccccc2c1,VOLSYN,Pseudomonas aeruginosa [1],1760
same,MIC,Pseudomonas aeruginosa [2],512 µg/mL
same,MPC8,Pseudomonas aeruginosa [3],5 µg/mL
CN(C(=O)[C@@H](N)Cc1ccccc1)[C@@H](CCCN)C(=O)Nc1ccc2ccccc2c1,VOLSYN,Pseudomonas aeruginosa [1],2825
same,MIC,Pseudomonas aeruginosa [2],256 µg/mL
same,MPC8,Pseudomonas aeruginosa [3],5 µg/mL
NCCC[C@H](NC(=O)[C@@H](N)CCc1ccccc1)C(=O)Nc1ccc2c(c1)CCC2,VOLSYN,[4],2220
same,MIC,Pseudomonas aeruginosa [5],256 µg/mL
same,MPC8,Pseudomonas aeruginosa [3],2.5 µg/mL
NCCC[C@H](NC(=O)[C@@H](N)CCc1ccccc1)C(=O)Nc1ccc2ncccc2c1,VOLSYN,[6],2060
same,MIC,Pseudomonas aeruginosa [5],> 512 µg/mL
same,MPC8,Pseudomonas aeruginosa [3],10 µg/mL
NCCC[C@H](NC(=O)[C@@H](N)CCc1ccccc1)C(=O)Nc1ccccc1,VOLSYN,[6],906
same,MIC,Pseudomonas aeruginosa [5],> 512 µg/mL
same,MPC8,Pseudomonas aeruginosa [3],>40 µg/mL
NCCCC[C@H](NC(=O)[C@@H](N)Cc1ccccc1)C(=O)Nc1ccc2ccccc2c1,VOLSYN,Pseudomonas aeruginosa [1],1390
same,MIC,Pseudomonas aeruginosa [2],> 512 µg/mL
same,MPC8,Pseudomonas aeruginosa [3],10 µg/mL
N[C@@H](Cc1ccccc1)C(=O)N[C@@H](Cc1c[nH]cn1)C(=O)Nc1ccc2ccccc2c1 (H-Phe-His-βNA),VOLSYN,Pseudomonas aeruginosa [1],463
same,MIC,Pseudomonas aeruginosa [2],> 512 µg/mL
same,MPC8,Pseudomonas aeruginosa [3],>40 µg/mL
N=C(N)NCCC[C@H](NC(=O)[C@@H](N)Cc1ccccc1)C(=O)Nc1ccc2ccccc2c1 [PABETAN] (H-Phe-Arg-βNA),MIC,Pseudomonas aeruginosa [7],0.06 µg/mL
same,MIC,Pseudomonas aeruginosa [8],2 µg/mL
same,MIC,Pseudomonas aeruginosa [9],2 µg/mL
same,MIC,Pseudomonas aeruginosa [10],0.06 µg/mL
same,MIC,Pseudomonas aeruginosa [11],0.5 µg/mL
same,MIC,Pseudomonas aeruginosa [12],0.125 µg/mL
same,VOLSYN,Pseudomonas aeruginosa [1],1962
same,MPC8,Pseudomonas aeruginosa [13],10 µg/mL
same,MIC,Pseudomonas aeruginosa [14],1 µg/mL
same,MIC,Pseudomonas aeruginosa [15],2 µg/mL
same,MIC,Pseudomonas aeruginosa [16],4 µg/mL
same,MIC,Pseudomonas aeruginosa [17],0.03 µg/mL
same,MIC,Pseudomonas aeruginosa [18],4 µg/mL
same,MIC,Pseudomonas aeruginosa [19],0.25 µg/mL
same,MIC,Pseudomonas aeruginosa [5],> 512 µg/mL
same,MIC,Pseudomonas aeruginosa [20],0.5 µg/mL
same,MPC8,Pseudomonas aeruginosa [21],5 µg/mL
same,MIC,Pseudomonas aeruginosa [22],0.125 µg/mL
same,MIC,Pseudomonas aeruginosa [23],4 µg/mL
same,MIC,Pseudomonas aeruginosa [24],4 µg/mL
same,MIC,Pseudomonas aeruginosa [25],0.06 µg/mL
same,MIC,Pseudomonas aeruginosa [26],0.125 µg/mL
same,MIC,Pseudomonas aeruginosa [27],0.125 µg/mL
same,MIC,Pseudomonas aeruginosa [28],1 µg/mL
same,MPC8,Pseudomonas aeruginosa [3],10 µg/mL
same,MIC,Pseudomonas aeruginosa [29],4 µg/mL
NCCC[C@H](NC(=O)[C@@H](N)CCc1ccccc1)C(=O)Nc1cnc2ccccc2c1,MIC,Pseudomonas aeruginosa [8],2 µg/mL
same,MIC,Pseudomonas aeruginosa [9],1 µg/mL
same,MIC,Pseudomonas aeruginosa [10],0.06 µg/mL
same,MIC,Pseudomonas aeruginosa [30],4 µg/mL
same,MIC,Pseudomonas aeruginosa [31],0.06 µg/mL
same,MIC,Pseudomonas aeruginosa [12],0.06 µg/mL
same,VOLSYN,[4],2590
same,MPC8,Pseudomonas aeruginosa [32],2.5 µg/mL
same,MIC,Pseudomonas aeruginosa [33],0.125 µg/mL
same,MIC,Pseudomonas aeruginosa [14],0.5 µg/mL
same,MIC,Pseudomonas aeruginosa [16],4 µg/mL
same,MIC,Pseudomonas aeruginosa [34],0.125 µg/mL
same,MIC,Pseudomonas aeruginosa [35],1 µg/mL
same,MIC,Pseudomonas aeruginosa [5],> 512 µg/mL
same,MIC,Pseudomonas aeruginosa [36],0.5 µg/mL
same,MIC,Pseudomonas aeruginosa [20],0.125 µg/mL
same,MIC,Pseudomonas aeruginosa [37],0.06 µg/mL
same,MIC,Pseudomonas aeruginosa [23],2 µg/mL
same,MIC,Pseudomonas aeruginosa [38],0.125 µg/mL
same,MIC,Pseudomonas aeruginosa [25],0.06 µg/mL
same,MIC,Pseudomonas aeruginosa [39],0.06 µg/mL
same,MIC,Pseudomonas aeruginosa [40],0.25 µg/mL
same,MIC,Pseudomonas aeruginosa [41],0.125 µg/mL
same,MPC8,Pseudomonas aeruginosa [3],5 µg/mL
same,MPC8,Pseudomonas aeruginosa [42],5 µg/mL
same,MIC,Pseudomonas aeruginosa [43],4 µg/mL
NCCC[C@H](N)C(=O)Nc1ccc2ccccc2c1,VOLSYN,Pseudomonas aeruginosa [1],183
same,MIC,Pseudomonas aeruginosa [2],> 512 µg/mL
same,MPC8,Pseudomonas aeruginosa [3],>40 µg/mL
C[C@H](N)C(=O)N[C@@H](CCCN)C(=O)Nc1ccc2ccccc2c1 (H-Ala-[Orn]-βNA),VOLSYN,Pseudomonas aeruginosa [1],486
same,MIC,Pseudomonas aeruginosa [2],> 512 µg/mL
same,MPC8,Pseudomonas aeruginosa [3],40 µg/mL
NCCC[C@H](NC(=O)[C@@H](N)Cc1ccc(F)cc1)C(=O)Nc1ccc2ccccc2c1,VOLSYN,Pseudomonas aeruginosa [1],2343
same,MIC,Pseudomonas aeruginosa [2],512 µg/mL
same,MPC8,Pseudomonas aeruginosa [3],5 µg/mL
NCCC[C@H](NC(=O)[C@@H](N)CCc1ccccc1)C(=O)Nc1ccc2ccccc2c1,VOLSYN,Pseudomonas aeruginosa [1],2612
same,MIC,Pseudomonas aeruginosa [2],128 µg/mL
same,MPC8,Pseudomonas aeruginosa [3],2.5 µg/mL
